From PubChem BioAssay AID248 (DTP/NCI, 2004)
Values joined by “and” are separate entries in the source; they are usually repeats but may differ in a detail not shown here. Equal entries are not always repeated. Inconclusive results and toxic doses are left out.

Tested on: L1210 leukemia ip in BDF1 mice, survival T/C
Experiment: NCI In Vivo Anticancer Drug Screen. Data for tumor model L1210 Leukemia (intraperitoneal) in B6D2F1 (BDF1) mice
Settings: endpoint: mean survival time, higher = longer survival
Outline: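 Antitumor effect is assessed in tumor-bearing animals. Survival in the compound arm is compared with a vehicle-dosed control arm and expressed as their quotient.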

[1] = dose: 100.0 mg/kg/injection, schedule: Q01DX001 (ip), vehicle: saline
[2] = dose: 200.0 mg/kg/injection, schedule: Q01DX001 (ip), vehicle: saline
[3] = dose: 400.0 mg/kg/injection, schedule: Q01DX001 (ip), vehicle: saline
[4] = dose: 100.0 mg/kg/injection, schedule: Q01DX001 (ip), vehicle: other
[5] = dose: 200.0 mg/kg/injection, schedule: Q01DX001 (ip), vehicle: other
[6] = dose: 400.0 mg/kg/injection, schedule: Q01DX001 (ip), vehicle: other
[7] = dose: 100.0 mg/kg/injection, schedule: Q01DX001 (ip), vehicle: carboxymethylcellulose (CMC)
[8] = dose: 200.0 mg/kg/injection, schedule: Q01DX001 (ip), vehicle: carboxymethylcellulose (CMC)
[9] = dose: 400.0 mg/kg/injection, schedule: Q01DX001 (ip), vehicle: carboxymethylcellulose (CMC)
[10] = dose: 100.0 mg/kg/injection, schedule: Q04DX003 (ip), vehicle: saline with Tween-80
[11] = dose: 200.0 mg/kg/injection, schedule: Q04DX003 (ip), vehicle: saline with Tween-80
[12] = dose: 400.0 mg/kg/injection, schedule: Q04DX003 (ip), vehicle: saline with Tween-80

N#CC(C#N)=C1CCSc2ccc(Cl)cc21
T/C [1]: 94 % of control
T/C [2]: 97 % of control
T/C [3]: 90 % of control

Cc1ccc(S(=O)(=O)OC2CCCC2OS(=O)(=O)c2ccc(C)cc2)cc1 (stereo unspecified)
T/C [4]: 96 % of control
T/C [5]: 95 % of control
T/C [6]: 91 % of control

O=C(NCCCCCCNC(=O)NCCN1CCOCC1)NCCN1CCOCC1
T/C (dose: 100.0 mg/kg/injection, schedule: Q04DX002 (ip), vehicle: Klucel (hydroxypropylcellulose) (HPC)): 94 % of control
T/C (dose: 200.0 mg/kg/injection, schedule: Q04DX002 (ip), vehicle: Klucel (hydroxypropylcellulose) (HPC)): 105 % of control
T/C (dose: 400.0 mg/kg/injection, schedule: Q04DX002 (ip), vehicle: Klucel (hydroxypropylcellulose) (HPC)): 97 % of control

C=CCNC(=S)N(CCC#N)C1CCCCC1
T/C (dose: 100.0 mg/kg/injection, schedule: Q04DX002 (ip), vehicle: saline with Tween-80): 101 % of control
T/C (dose: 200.0 mg/kg/injection, schedule: Q04DX002 (ip), vehicle: saline with Tween-80): 90 % of control
T/C (dose: 400.0 mg/kg/injection, schedule: Q04DX002 (ip), vehicle: saline with Tween-80): 93 % of control

CSc1nc(N)nc2ncc(CN(C)c3ccc(C(=O)O)cc3)nc12
T/C (dose: 8.0 mg/kg/injection, schedule: Q01DX009 (ip), vehicle: DMSO): 100 % of control
T/C (dose: 12.0 mg/kg/injection, schedule: Q01DX009 (ip), vehicle: DMSO): 98 % of control
T/C (dose: 18.0 mg/kg/injection, schedule: Q01DX009 (ip), vehicle: DMSO): 100 % of control
T/C (dose: 25.0 mg/kg/injection, schedule: Q01DX009 (ip), vehicle: DMSO): 88 % of control
T/C (dose: 50.0 mg/kg/injection, schedule: Q01DX001 (ip), vehicle: DMSO): 91 % of control

COC(=O)C1OC1c1cc(Cl)ccc1OC (stereo unspecified)
T/C [1]: 102 % of control
T/C [2]: 94 % of control
T/C [3]: 94 % of control

CCC/C(=N/OC(=O)N(C)C)c1ccccc1
T/C [7]: 97 % of control
T/C [8]: 98 % of control
T/C [9]: 101 % of control

NC(=O)c1ccccc1Nc1ccc([N+](=O)[O-])cc1[N+](=O)[O-]
T/C (dose: 34.0 mg/kg/injection, schedule: Q01DX Z (ip), vehicle: carboxymethylcellulose (CMC)): 95 % of control
T/C (dose: 49.0 mg/kg/injection, schedule: Q01DX Z (ip), vehicle: carboxymethylcellulose (CMC)): 95 % of control

O=C1CC2C=CCC12 (stereo unspecified)
T/C [10]: 95 % of control
T/C [11]: 93 % of control
T/C [12]: 93 % of control

CCSC1C(O)C(C(O)CO)OC1n1ccc(=O)[nH]c1=O (stereo unspecified)
T/C (dose: 100.0 mg/kg/injection, schedule: Q01DX005 (ip), vehicle: saline): 96 % of control
T/C (dose: 200.0 mg/kg/injection, schedule: Q01DX005 (ip), vehicle: saline): 98 % of control

CCCCCCCNC(=O)Nc1cccc(Cl)c1C
T/C (dose: 25.0 mg/kg/injection, schedule: Q04DX003 (ip), vehicle: Klucel (hydroxypropylcellulose) (HPC)): 103 % of control
T/C (dose: 50.0 mg/kg/injection, schedule: Q01DX009 (ip), vehicle: Klucel (hydroxypropylcellulose) (HPC)): 101 % of control
T/C (dose: 50.0 mg/kg/injection, schedule: Q04DX003 (ip), vehicle: Klucel (hydroxypropylcellulose) (HPC)): 101 % of control
T/C (dose: 100.0 mg/kg/injection, schedule: Q01DX009 (ip), vehicle: Klucel (hydroxypropylcellulose) (HPC)): 89 % of control
T/C (dose: 100.0 mg/kg/injection, schedule: Q04DX003 (ip), vehicle: Klucel (hydroxypropylcellulose) (HPC)): 95 % of control and 101 % of control
T/C (dose: 200.0 mg/kg/injection, schedule: Q01DX009 (ip), vehicle: Klucel (hydroxypropylcellulose) (HPC)): 93 % of control

CCOc1cccc(Cc2c[nH]c(=S)[nH]c2=O)c1
T/C (dose: 100.0 mg/kg/injection, schedule: Q01DX001 (ip), vehicle: Klucel (hydroxypropylcellulose) (HPC)): 100 % of control
T/C (dose: 200.0 mg/kg/injection, schedule: Q01DX001 (ip), vehicle: Klucel (hydroxypropylcellulose) (HPC)): 105 % of control
T/C (dose: 400.0 mg/kg/injection, schedule: Q01DX001 (ip), vehicle: Klucel (hydroxypropylcellulose) (HPC)): 94 % of control

CC1C(C)C1(Br)c1ccccc1 (stereo unspecified)
T/C [1]: 91 % of control
T/C [2]: 101 % of control
T/C [3]: 96 % of control

COC1OC2COCOC2C(O)C1O (stereo unspecified)
T/C (dose: 25.0 mg/kg/injection, schedule: Q04DX002 (ip), vehicle: saline): 93 % of control and 104 % of control
T/C (dose: 50.0 mg/kg/injection, schedule: Q04DX002 (ip), vehicle: saline): 108 % of control
T/C (dose: 100.0 mg/kg/injection, schedule: Q04DX002 (ip), vehicle: saline): 100 % of control [middle of 4 runs]
T/C (dose: 200.0 mg/kg/injection, schedule: Q04DX002 (ip), vehicle: saline): 106 % of control and 100 % of control
T/C (dose: 400.0 mg/kg/injection, schedule: Q04DX002 (ip), vehicle: saline): 103 % of control and 100 % of control

CC1CN=C(c2cccc(NC(=O)Nc3ccc(NC(=O)Nc4cccc(C5=NCC(C)N5)c4)cc3)c2)N1 (stereo unspecified)
T/C (dose: 4.5 mg/kg/injection, schedule: Q01DX Z (ip), vehicle: carboxymethylcellulose (CMC)): 118 % of control
T/C (dose: 36.0 mg/kg/injection, schedule: Q01DX Z (ip), vehicle: carboxymethylcellulose (CMC)): 202 % of control and 217 % of control
T/C (dose: 45.0 mg/kg/injection, schedule: Q01DX Z (ip), vehicle: carboxymethylcellulose (CMC)): 153 % of control
T/C (dose: 62.0 mg/kg/injection, schedule: Q01DX Z (oral), vehicle: carboxymethylcellulose (CMC)): 113 % of control
T/C (dose: 63.0 mg/kg/injection, schedule: Q01DX Z (ip), vehicle: carboxymethylcellulose (CMC)): 112 % of control
T/C (dose: 72.0 mg/kg/injection, schedule: Q01DX Z (ip), vehicle: carboxymethylcellulose (CMC)): 101 % of control and 111 % of control
T/C (dose: 125.0 mg/kg/injection, schedule: Q01DX Z (oral), vehicle: carboxymethylcellulose (CMC)): 113 % of control
T/C (dose: 250.0 mg/kg/injection, schedule: Q01DX Z (oral), vehicle: carboxymethylcellulose (CMC)): 115 % of control
T/C (dose: 500.0 mg/kg/injection, schedule: Q01DX Z (oral), vehicle: carboxymethylcellulose (CMC)): 109 % of control

CCN1c2ccccc2Sc2ccccc21
T/C (dose: 50.0 mg/kg/injection, schedule: Q01DX001 (ip), vehicle: carboxymethylcellulose (CMC)): 98 % of control
T/C [7]: 98 % of control
T/C [10]: 92 % of control
T/C [8]: 102 % of control
T/C [11]: 97 % of control
T/C [9]: 98 % of control
T/C [12]: 100 % of control

CC(C)C(=O)Nc1cc(Cl)ccc1Cl
T/C [4]: 94 % of control
T/C [5]: 97 % of control
T/C [6]: 92 % of control

CC(=O)NCc1cc2c3c(c1)CCCN3CCC2
T/C (dose: 50.0 mg/kg/injection, schedule: Q01DX009 (ip), vehicle: saline with Tween-80): 97 % of control
T/C (dose: 100.0 mg/kg/injection, schedule: Q01DX009 (ip), vehicle: saline with Tween-80): 90 % of control
T/C [10]: 90 % of control
T/C (dose: 200.0 mg/kg/injection, schedule: Q01DX009 (ip), vehicle: saline with Tween-80): 94 % of control
T/C [11]: 100 % of control
